Earlier results in US20100189788A1 (Teva Pharmaceutical Industries, Ltd., priority 2009, published 2010).

Details: such as hexane toluene and ethylacetate; in words

In the case of `C#CCN[C@@H]1CCc2ccccc21` [rasagiline, R(+)-N-propargyl-1-aminoindan], the “solubility in non-polar organic solvents” value is listed as “very soluble”.
